According to the NIST ThermoML archive (doi:10.1021/je060271a):
Numbers after ± are expanded uncertainties.

Conditions: 283.16 K, Liquid, Vibrating tube method

CCCC(=O)OCC(COC(=O)CCC)(COC(=O)CCC)COC(=O)CCC [pentaerythritol tetrabutyrate]
Conditions	mass density [kg/m3]
19617 kPa	1070.2 ± 1.3
19631 kPa	1070.3 ± 1.3
19642 kPa	1070.3 ± 1.3
19654 kPa	1070.3 ± 1.3
19669 kPa	1070.3 ± 1.3
19681 kPa	1070.2 ± 1.3
19694 kPa	1070.3 ± 1.3
19706 kPa	1070.4 ± 1.3
19717 kPa	1070.3 ± 1.3
19732 kPa	1070.3 ± 1.3
19743 kPa	1070.3 ± 1.3
19757 kPa	1070.3 ± 1.3
19769 kPa	1070.3 ± 1.3
19781 kPa	1070.4 ± 1.3
19796 kPa	1070.4 ± 1.3
19807 kPa	1070.3 ± 1.3
19819 kPa	1070.4 ± 1.3
19834 kPa	1070.4 ± 1.3
19846 kPa	1070.3 ± 1.3
19858 kPa	1070.5 ± 1.3
19870 kPa	1070.5 ± 1.3
19885 kPa	1070.4 ± 1.3
19897 kPa	1070.4 ± 1.3
19909 kPa	1070.4 ± 1.3
19921 kPa	1070.3 ± 1.3
19936 kPa	1070.4 ± 1.3
19947 kPa	1070.4 ± 1.3
19962 kPa	1070.5 ± 1.3
19975 kPa	1070.6 ± 1.3
19986 kPa	1070.5 ± 1.3
20001 kPa	1070.5 ± 1.3
20014 kPa	1070.5 ± 1.3
20026 kPa	1070.3 ± 1.3
20039 kPa	1070.6 ± 1.3
20053 kPa	1070.5 ± 1.3
20065 kPa	1070.5 ± 1.3
20077 kPa	1070.5 ± 1.3
20092 kPa	1070.5 ± 1.3
20104 kPa	1070.5 ± 1.3
20117 kPa	1070.6 ± 1.3
20130 kPa	1070.5 ± 1.3
20145 kPa	1070.6 ± 1.3
20157 kPa	1070.7 ± 1.3
20170 kPa	1070.5 ± 1.3
20185 kPa	1070.6 ± 1.3
20197 kPa	1070.6 ± 1.3
20210 kPa	1070.6 ± 1.3
20225 kPa	1070.6 ± 1.3
20237 kPa	1070.6 ± 1.3
20250 kPa	1070.6 ± 1.3
20264 kPa	1070.7 ± 1.3
20277 kPa	1070.6 ± 1.3
20290 kPa	1070.8 ± 1.3
20305 kPa	1070.6 ± 1.3
20317 kPa	1070.6 ± 1.3
20330 kPa	1070.7 ± 1.3
20468 kPa	1070.7 ± 1.3
20480 kPa	1070.8 ± 1.3
20493 kPa	1070.6 ± 1.3
20506 kPa	1070.8 ± 1.3
20521 kPa	1070.7 ± 1.3
20534 kPa	1070.8 ± 1.3
20548 kPa	1070.8 ± 1.3
20563 kPa	1070.8 ± 1.3
20576 kPa	1070.8 ± 1.3
20592 kPa	1070.8 ± 1.3
20605 kPa	1070.8 ± 1.3
20618 kPa	1070.8 ± 1.3
20773 kPa	1070.9 ± 1.3
20787 kPa	1070.9 ± 1.3
20800 kPa	1070.9 ± 1.3
20816 kPa	1070.9 ± 1.3
20829 kPa	1071 ± 1.3
20845 kPa	1071 ± 1.3
20858 kPa	1070.8 ± 1.3
20872 kPa	1071 ± 1.3
20886 kPa	1071 ± 1.3
20900 kPa	1071 ± 1.3
20914 kPa	1070.9 ± 1.3
20930 kPa	1071 ± 1.3
21000 kPa	1071 ± 1.3
21016 kPa	1071 ± 1.3
21030 kPa	1071 ± 1.3
21044 kPa	1071 ± 1.3
21060 kPa	1071 ± 1.3
21076 kPa	1071 ± 1.3
21090 kPa	1071.1 ± 1.3
21104 kPa	1071.1 ± 1.3
21118 kPa	1071.1 ± 1.3
21134 kPa	1071 ± 1.3
21148 kPa	1071.1 ± 1.3
21162 kPa	1071 ± 1.3
21178 kPa	1071.1 ± 1.3
21192 kPa	1071 ± 1.3
21209 kPa	1071 ± 1.3
21223 kPa	1071.1 ± 1.3
21237 kPa	1071.1 ± 1.3
21251 kPa	1071.1 ± 1.3
21267 kPa	1071.1 ± 1.3
21282 kPa	1071.2 ± 1.3
21295 kPa	1071.3 ± 1.3
21312 kPa	1071.2 ± 1.3
21326 kPa	1071.2 ± 1.3
21340 kPa	1071.1 ± 1.3
21400 kPa	1071.2 ± 1.3
21417 kPa	1071.2 ± 1.3
21431 kPa	1071.2 ± 1.3
21445 kPa	1071.3 ± 1.3
21463 kPa	1071.3 ± 1.3
21477 kPa	1071.2 ± 1.3
21491 kPa	1071.2 ± 1.3
21508 kPa	1071.2 ± 1.3
21523 kPa	1071.4 ± 1.3
21537 kPa	1071.2 ± 1.3
21554 kPa	1071.4 ± 1.3
21568 kPa	1071.3 ± 1.3
21600 kPa	1071.4 ± 1.3
21723 kPa	1071.4 ± 1.3
21785 kPa	1071.4 ± 1.3
21800 kPa	1071.4 ± 1.3
21818 kPa	1071.5 ± 1.3
22023 kPa	1071.5 ± 1.3
22039 kPa	1071.6 ± 1.3
22057 kPa	1071.6 ± 1.3
22072 kPa	1071.6 ± 1.3
22087 kPa	1071.6 ± 1.3
22102 kPa	1071.6 ± 1.3
22121 kPa	1071.5 ± 1.3
22136 kPa	1071.6 ± 1.3
22154 kPa	1071.6 ± 1.3
22169 kPa	1071.6 ± 1.3
22184 kPa	1071.6 ± 1.3
22200 kPa	1071.7 ± 1.3
22219 kPa	1071.6 ± 1.3
22234 kPa	1071.6 ± 1.3
22250 kPa	1071.7 ± 1.3
22266 kPa	1071.6 ± 1.3
22284 kPa	1071.6 ± 1.3
22300 kPa	1071.7 ± 1.3
22316 kPa	1071.7 ± 1.3
22331 kPa	1071.7 ± 1.3
22790 kPa	1071.9 ± 1.3
22826 kPa	1071.9 ± 1.3
22842 kPa	1072 ± 1.3
22861 kPa	1072.1 ± 1.3
22877 kPa	1072 ± 1.3
